Read-outs that look alike come from different tables or passages of the source.
Tests used:
[1] = tested on: hind paws of male rats; experiment: Anti-inflammatory effect: acute carragheenin edema method; assay type: in vivo; conditions: for inhibition in vivo at 100 mg/kg / ED50: Rattus norvegicus; for inhibition in vivo at 100 mg/kg: read-out: Anti-inf.: edema inhibition rate; for ED50: read-out: 50% inhibition ED50 (values in brackets); for anti-inflammatory effect, inhibition rate (ED50), in words: rat, in vivo
Experimental: The edema was induced by subcutaneous injection of 1% carragheenin suspension in saline to the hind paws of male rats weighting 150 to 180 g. Each sample was orally given at the dosage of 100 mg/kg just before the inoculation of carragheenin.

[2] = tested on: platelet; experiment: Blood platelet aggregation inhibiting effect (collagen-induced); assay type: cell-based, rabbits; conditions: Oryctolagus cuniculus, Platelet; 10^-4 mole, collagen inducer, rabbit PRP; read-out: Blood platelet agg. inh.: percentage inhibition of platelet aggregation
Text: Male rabbits (Japan original white strain 3.3 to 3.6 kg) were anesthetized with Thiopental sodium and blood was sampled from the carotid artery.

[3] = in vivo; conditions: mouse, in vivo, po
Experimental: (§1) Each sample was dissolved in olive oil or dispersed in 1% Tween 20 aqueous solution.

[4] = tested on: thrombus; experiment: Inhibiting effect on thrombosis (by-pass between left juglar vein and right carotid artery, silk thread); assay type: in vivo, SD type male rates; conditions: Rattus norvegicus, read-out: Thrombosis inh.: thrombosis inhibition rate
Method in brief: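 Arteriovenous shunt with silk thread and heparin saline, run as three successive 15-min circulations, with thrombus wet weight measured on the thread each time. Compound given orally in carboxymethyl cellulose suspension at 100 mg/kg 5 h before the first circulation. Inhibition rate derived against control circulations.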

[5] = tested on: male mice; experiment: Analgesic effect: painful stretchings following intraperitoneal 0.7% acetic acid; conditions: Mus musculus, po, read-out: Analgesic: percentage diminition of times of painful stretching
Experimental: Each sample was orally administered in the dosage of 100 mg/kg before injection of acetic acid.

[6] = tested on: adjuvant-induced arthritis; experiment: Chronic inflammation (adjuvant-induced arthritis): reduction in edema of the hind paws; assay type: in vivo, female rats of Sprague Drawley strain
Experimental: (§2) The effects of 1 4-n-butyl benzophenone and 2 4-n-butyl-2'-fluorobenzophenone against adjuvant-induced arthritis were studied.
(§3) For the study, adult female rats of Sprague Drawley strain weighing approximately 200 g were used. All rats received 0.1 ml of a suspension of dry heat-killed tubercle bacilli (human strains, commercial product of Difco Co.) in liquid paraffin (5 mg/ml, w/v) by a single intradermal injection into the tail.
The treatment of the animals by the test compounds were started fourteen days after injection of the adjuvant when arthritis developed sufficiently accompanying edema and erythema in paws. Each compound was orally given to animals daily for ten days. […] Phenylbutazone was used as the reference drug.
(§4) Evaluations were made using the following parameters.
(2) Relative reduction in edema of the hind paws.

[7] = Chronic inflammation (adjuvant-induced arthritis): body weight gain; assay type: in vivo, female rats of Sprague Drawley strain
Experimental: as §2, §3
The treatment of the animals by the test compounds were started fourteen days after injection of the adjuvant when arthritis developed sufficiently accompanying edema and erythema in paws. […] […] Phenylbutazone was used as the reference drug.
as §4

[8] = tested on: male mice; experiment: in vivo; conditions: oral, male mice, within 72 hours (Table 2)
Experimental: as §1

[9] = 100 mg/kg oral, carragheenin edema, male rats (Table 2)
[10] = 100 mg/kg oral, 5 hours before first blood circulation, rats

| SMILES | inhibition in vivo at 100 mg/kg [1, 9] [%] | inhibition at 100 µM [2] [%] | inhibition in vivo at 100 mg/kg [4, 10] [%] | inhibition in vivo at 100 mg/kg [5] [%] | also measured |
| --- | --- | --- | --- | --- | --- |
| Cc1cc(C)c(C(=O)c2ccccc2C)c(C)c1 [Active ingredient No. 3] | 40 | 17.3 | 38.3 | 11.3 | ED50 ([1]; oral, carragheenin edema, male rats (Table 2)): 290 mg/kg; LD50 at 72 h [3]: 1500 mg/kg |
| CCCCC1C(=O)N(c2ccccc2)N(c2ccccc2)C1=O [Phenylbutazone, reference compound] | – | – | – | – | Relative volume ratio of swelling in hind paws, average, 6 days ([6]; 50 mg/kg/day oral): 0.75; Relative volume ratio of swelling in hind paws, average, 10 days ([6]; 50 mg/kg/day oral): 0.75; Body weight gain, average, 0 days ([7]; 50 mg/kg/day oral): 215.6; Body weight gain, average, 6 days ([7]; 50 mg/kg/day oral): 207.7; Body weight gain, average, 10 days ([7]; 50 mg/kg/day oral): 214.3 |
| CCCCc1ccc(C(=O)c2ccccc2)cc1 [Active ingredient No. 19, 4-n-butyl benzophenone] | – | – | – | – | anti-inflammatory effect, inhibition rate (ED50), in words [1]: especially high inhibition rate (ED50); Relative volume ratio of swelling in hind paws, average, 6 days ([6]; 100 mg/kg/day oral): 0.97; Relative volume ratio of swelling in hind paws, average, 10 days ([6]; 100 mg/kg/day oral): 1.02; Relative volume ratio of swelling in hind paws, average, 6 days ([6]; 200 mg/kg/day oral): 0.76; Relative volume ratio of swelling in hind paws, average, 10 days ([6]; 200 mg/kg/day oral): 0.75; Body weight gain, average, 0 days ([7]; 100 mg/kg/day oral): 229.2; Body weight gain, average, 6 days ([7]; 100 mg/kg/day oral): 217.5; Body weight gain, average, 10 days ([7]; 100 mg/kg/day oral): 218.2; Body weight gain, average, 0 days ([7]; 200 mg/kg/day oral): 214.1; Body weight gain, average, 6 days ([7]; 200 mg/kg/day oral): 213.3; Body weight gain, average, 10 days ([7]; 200 mg/kg/day oral): 220.1 |
| COc1ccc(C(=O)c2ccccc2)cc1 [compound 28] | – | 20.4 | – | 4.2 | inhibition in vivo at 100 mg/kg ([1]; po): 44.1%; Acute toxicity LD50 [8]: > 10000 mg/kg; inhibition in vivo at 100 mg/kg ([4]; po, 5 h): 7.3% |
| CCCCCCc1ccc(C(=O)c2ccc(CCCC)cc2)cc1 [Active ingredient No. 5] | 46.3 | 15.3 | 20.3 | 12.1 | LD50 at 72 h [3]: 5000 mg/kg |
| CCCCCCCCCc1ccc(C(=O)c2ccccc2)cc1 [compound 70] | 23.2 | 17.2 | 10 | 7 | – |
| CCCCCCCc1ccc(C(=O)c2ccccc2)cc1 [compound 25] | 40.8 | 7.8 | 22.1 | 48.6 | – |
| CCc1ccc(C(=O)c2ccc(CC)cc2)cc1 [compound 106] | 26.4 | 20.3 | 20.2 | 7.3 | – |
| CCCCOc1ccc(C(=O)c2ccc(CCCC)cc2)cc1 [compound 95] | 17.1 | 30 | 32.3 | 14.5 | – |
| CCCCc1ccc(CCCC)c(C(=O)c2ccccc2)c1 [compound 77] | 13.2 | 25.1 | 17.5 | 10.8 | – |
| CCCCc1ccc(C(=O)c2ccc(C)cc2)cc1 [compound 35] | 48.5 | 11.3 | 2.65 | 17.8 | – |
| CCc1cc(CC)c(C(=O)c2ccccc2)c(CC)c1 [compound 13] | 38.9 | 14.3 | 20.5 | 15.8 | – |
| CCCCc1ccc(C(=O)c2ccccc2F)cc1 [Active ingredient No. 8, 4-n-butyl-2'-fluorobenzophenone] | – | – | – | – | anti-inflammatory effect, inhibition rate (ED50), in words [1]: especially high inhibition rate (ED50); Relative volume ratio of swelling in hind paws, average, 6 days ([6]; 50 mg/kg/day oral): 0.74; Relative volume ratio of swelling in hind paws, average, 10 days ([6]; 50 mg/kg/day oral): 0.76; Relative volume ratio of swelling in hind paws, average, 6 days ([6]; 100 mg/kg/day oral): 0.78; Relative volume ratio of swelling in hind paws, average, 10 days ([6]; 100 mg/kg/day oral): 0.73; Body weight gain, average, 0 days ([7]; 50 mg/kg/day oral): 222.6; Body weight gain, average, 6 days ([7]; 50 mg/kg/day oral): 223.0; Body weight gain, average, 10 days ([7]; 50 mg/kg/day oral): 232.0; Body weight gain, average, 0 days ([7]; 100 mg/kg/day oral): 211.8; Body weight gain, average, 6 days ([7]; 100 mg/kg/day oral): 205.8; Body weight gain, average, 10 days ([7]; 100 mg/kg/day oral): 214.4 |
| O=C(C(=O)c1ccccc1)c1ccccc1 [compound 53] | – | 10.1 | – | 14.2 | inhibition in vivo at 100 mg/kg ([1]; po): 20.3%; inhibition in vivo at 100 mg/kg ([4]; po, 5 h): 19.2% |
| Cc1ccc(C(=O)Cc2ccccc2)cc1 [compound 48] | 26 | 20.5 | 18.3 | 12.5 | – |
| CCCCCCc1ccc(C(=O)c2ccccc2)cc1 [compound 24] | 37.6 | 10.5 | 24.3 | 47.7 | – |
| CCCc1ccc(CCC)c(C(=O)c2ccccc2)c1 [compound 16] | 45.2 | 8.6 | 21.5 | 12.4 | – |
| O=C(c1ccccc1)c1ccccc1C(=O)c1ccccc1 [compound 113] | 38.7 | 25.8 | 30.4 | 14.5 | – |
| CCCCCc1ccc(C(=O)c2ccccc2)cc1 [compound 23] | 50.4 | 13.8 | 22.3 | 10.1 | – |
| CCCCCCc1ccc(C(=O)c2ccc(CCC)cc2)cc1 [Active ingredient No. 6] | 44.2 | 17.8 | 15.9 | 14.5 | LD50 at 72 h [3]: 5000 mg/kg |
| O=C(c1ccccc1)c1ccccc1 [compound 27] | – | 25.7 | – | 13.2 | ED50 ([1]; po): 120 mg/kg; inhibition in vivo at 100 mg/kg ([1]; po): 47.7%; inhibition in vivo at 100 mg/kg ([4]; po, 5 h): 25.9% |
| CCCCc1ccc(C(=O)c2ccccc2C)cc1 [compound 40] | 58.1 | 11.9 | 30.3 | 20.3 | – |
| CCCCCCc1ccc(C(=O)c2ccc(C)cc2)cc1 [compound 36] | 34.8 | 15.1 | 28.1 | 13.7 | – |

— patent publication US4145444A, “Anti-inflammatory agent of benzoyl derivative” (priority 1977, dated 1979)
